Measurements taken from patent publication US20110230352A1, “TREATMENT PROCESS FOR A SUPERIOR PLANT IN ORDER TO CONTROL ITS GROWTH AND ARCHITECTURE” (INSTITUT NATIONAL DE LA RECHERCHE AGRONOMIQUE, priority 2008, published 2011).
Entries after “also recorded” stand apart in the source; their conditions may differ.

What was measured:
[1] = tested on: wild peas WT Térèse; experiment: Local application onto buds at node 2 of wild pea; type: in vivo; conditions: 500 nM, 10 μl per bud, eight days after the treatment, FIG. 4
Experimental: To this end, a third experiment is carried out on wild peas WT Térèse. The plants used are obtained in a identical manner as for the plants used in the first experiment.
The treatment is carried out 10 days after the seedling (stage with 4 to 5 leaves).
A solution containing synthetic strigolactone GR24 at 0 nM and 500 nM (4% PEG, 10% ethanol) is applied with the help of a micropipette onto the buds at the node 2 (N2), at the rate of 10 μl per bud.
The buds and/or ramifications at the first plant node N1 are cut at the time of the treatment.
The bud size at the node N2 is measured eight days after the treatment, the results being plotted in the chart in FIG. 4.

[2] = tested on: mutants rms1 (line WL5237 from WT Térèse); experiment: Decapitation after treatment of buds at node 3; type: in vivo, pea; conditions: 1000 nM, two applications, decapitated nine days after the treatment, measured seven days after decapitation, FIG. 7B
Experimental: A first experiment is carried out simultaneously on wild peas (line WT Parvus) and mutants rms1 (line WL5237 from […]). In this experiment, 18 seeds are used for each treatment, which are sowed in pots (2 plants per pot with a diameter of 15 cm) in a soil mixed with sand. The seedling is carried out under glass with natural light and with an extension of the light period of 18 h light/6 h night be means of incandescent bulbs (60 W).
In a first stage, the plants are treated by two successive applications, separated by a 24 hour interval, of a solution (2% PEG 3550, 50% ethanol) containing synthetic strigolactone GR24 at 0 nM or 1000 nM. The solution is applied with the help of a micropipette onto the buds at the node 3 (N3), at the rate of 10 μl per bud.
(§1) The buds and/or ramifications at the first two plant nodes N1 and N2 are cut at the time of the treatment.
The size of the treated buds is measured seven days after the treatment. The chart in FIG. 7A illustrates the results obtained with the buds at the N3.
In a second stage, a first half of the treated mutant plants rms1 are decapitated just above the node 3, nine days after the treatment, the second half is left intact. The buds and/or ramifications at node 3 of the treated plants at 0 nM (which have not been repressed) are cut.
The bud size is measured seven days after the decapitation. […]

[3] = tested on: wild pea (line WT Térèse) and mutant pea (line M3T-988 ccd8/rms1 from WT Térèse); experiment: Application through the roots in hydroponic solution, internodal length and ramification length; type: in vivo
Experimental: To this end, an experiment is carried out in a hydroponic solution in order to bring GR24 into the hydroponic solution through the roots.
In this experiment, wild pea seeds (line WT Térèse) and mutant pea seeds (line M3T-988 ccd8/rms1 from WT Térèse) are first sowed in sand. Eight days later, the resulting plants are brought into the hydroponic system in which the roots are dipped in the nutritive solution. Four days later, a GR24 solution (diastereo isomer no 1) is added to 1 μM in the 47 liters of nutritive solution (4.7 ml GR24 at 10 mM). In this experiment, the plants reach the stage with 3-4 nodes.
Then, the cotyledonal ramifications are removed. The ramifications at the nodes N1 and N2 are kept.
The observation is carried out seven days later after addition of GR24 in the solution.
FIG. 10 represents the internodal length measured 19 days later after the germination on treated and untreated wild plants on one hand and treated and untreated mutant plants on the other hand.
FIG. 11 represents the ramification length (ramifications 3 at node N4) measured 19 days later on treated and untreated wild plants on one hand and treated and untreated mutant plants on the other hand. The ramifications at nodes N1 and N2 have already started at the time of the addition of GR24.

[4] = tested on: mutants rms1 (line WL5237 from wild pea WT Parvus); experiment: Local application onto buds at node 3 of plants of different ages; type: in vivo; conditions: 1000 nM applied on two days, 9 to 13 day-old plants, buds 0.2 to 1 mm at first treatment, three and seven days after, FIG. 5A
Experimental: A first experiment is carried out on mutants rms1 (line WL5237 from wild pea WT Parvus) in order to compare the effect of synthetic strigolactones GR24 on the size of the treated buds at the time of the treatment.
In this experiment, 20 seeds are used for each treatment, which are sowed in pots (2 plants per pot with a diameter of 15 cm) in a soil mixed to clay balls. The seedling is carried out under glass with a natural light and with an extension of the light period of 18 h light/6 h night by means of incandescent bulbs (60 W).
On the first day of treatment, a solution containing synthetic strigolactone GR24 at 0 nM and 1000 nM (4% PEG 1450, 10% ethanol) is applied with the help of a micropipette onto the buds at the node 3 (N3), at the rate of 10 μl per bud.
On the second day of treatment, a solution containing synthetic strigolactone GR24 at 0 nM and 1000 nM (4% PEG 1450, 10% ethanol) is applied with the help of a micropipette onto the same buds, at the rate of 10 μl per bud.
as §1
The first treatment is carried out on 9, 10, 11, 12 and 13 day-old plants (the seedling were spread out over five days).
The bud size at the node N3 is measured the day of the first treatment (J0) and three and seven days afterwards. The obtained results are illustrated in the charts in FIG. 5A.

[5] = tested on: mutants rms1 (line M3T-884 from wild pea WT Térèse); experiment: Comparison of GR24, molecule ABC and sorgolactone by local application onto buds at node 4; type: in vivo; conditions: mutant rms1; 100 nM and 500 nM, 10 μl per bud; nine days after the treatment; FIG. 3
Experimental: A second experiment is carried out on mutants rms1 (line M3T-884 from wild pea WT Térèse) in order to compare on these mutants the effect of synthetic strigolactone GR24, of a synthetic molecule ABC from GR24, without any cycle D characteristic of strigolactone, and Sorgolactone, a natural strigolactone.
The plants used are obtained in the same manner as for the plants used in the first experiment.
The solution containing synthetic strigolactone GR24 at 0 nM, 100 nM and 500 nM (4% PEG 1450, 10% ethanol) is applied with the help of a micropipette onto the buds at the node 4 (N4), at the rate of 10 μl per bud.
as §1
The size of the buds at the upper nodes (node N4) is measured nine days after the treatment. The results of the bud growth are illustrated in the chart in FIG. 3.

[6] = tested on: mutants rms1 (line M3T-884 from wild pea WT Térèse); experiment: Local application of strigolactone onto axillary buds at node 4, bud growth; type: in vivo; conditions: mutant rms1; 100 nM, 10 μl per bud; eight days after the treatment; FIG. 2
Experimental: (§2) A first experiment is carried out simultaneously on mutants rms1 (line M3T-884 from wild pea WT Térèse) and rms4 (line M3T-946 from wild pea WT Térèse).
(§3) 9 seeds are used for each treatment; they are sowed in pots (3 plants per pot) in soil mixed to clay balls. The seedling is carried out under glass with a light period of 16 h light/8 h night.
(§4) The treatment is carried out 10 days after the seedling (Stage with 4 leaves).
(§5) A solution containing synthetic strigolactone GR24 dissolved in acetone at 0 nM and 100 nM (4% PEG 1450, 25% ethanol, 5^0/00 acetone) is applied with the help of a micropipette onto the buds at the node 4 (N4), at the rate of 10 μl per bud.
(§6) The buds and/or ramifications at the first two plant nodes N1 and N2 are cut for favoring the start of the buds at upper nodes.
(§7) The untreated plants correspond to the plants the buds and/or ramifications of which at nodes 1 and 2 have been cut but which have not received any treatment. The control “0 nM” corresponds to the plants treated with the same solution as for the treatment “500 nM” but without any strigolactones.

[7] = tested on: mutants rms4 (line M3T-946 from wild pea WT Térèse); experiment: as above; type: in vivo; conditions: mutant rms4; 100 nM, 10 μl per bud; eight days after the treatment; FIG. 2
Experimental: as §2, §3, §4, §5, §6, §7

[8] = tested on: mutants rms1 (line M3T-988 from WT Térèse); experiment: Injection into the stem above node N3, size of bud at N5 (long-distance, dose-response); type: in vivo, pea; conditions: rms1 M3T-988; injected 1, 10, 100, 500 nM; eight days after the treatment; FIG. 6
Experimental: To this end, an experiment is carried out on mutants rms1 (line M3T-988 from WT Térèse) obtained in the same manner as for the mutants used in the preceding experiments.
The plants are treated by injecting the solution into the stem above the node N3. More precisely, a cotton thread is introduced into the plant stem with the help of needle and is dipped into the solution to be tested. The GR24 solution used (0 nM, 1 nM, 10 nM, 100 nM and 500 nM) were prepared by diluting in water GR24 solutions kept in acetone at different concentrations so that they have the same volume of acetone (10 μl of acetone in 20 ml of water).
as §1
The “untreated” plants correspond to control plants the ramifications N1 and N2 of which have been cut, but which have not received any injection.
The size of the buds at the node situated a distance above the injection zone (N5) is measured eight days after the treatment.

Row | Structure (SMILES) | bud size at the node N2 [1] | bud size at N3 after decapitation of plants with buds first inhibited [2] | internodal length, from internode N4-N5 ([3]; 1 μM in hydroponic solution through the roots, wild and rms1 mutant, 19 days after germination, FIG. 10) | ramification length / bud start ([3]; 1 μM in hydroponic solution through the roots, wild and rms1 mutant, measured 19 days later, FIG. 11) | internodal length, internodes N1-N2, N2-N3 and N3-N4 ([3]; 1 μM in hydroponic solution, internodes already developed before addition, FIG. 10) | bud size at the node N3, sensitivity of buds of different ages [4] | bud growth at node N4, comparison of effects [5] | bud growth at N4 [6] | bud growth at N4 [7] | concentration from which injection above N3 represses the growth of the bud at N5 [8]
1 | CC1=CC(O/C=C2/C(=O)OC3c4ccccc4CC23)OC1=O (stereo not drawn) [GR24] | has also an action on the growth of the buds | able to start again when the plant is decapitated | has an effect only from the internode N4-N5 | induces a reduction of the ramification length | has no action | all sensitive to the treatment | comparable effects | strongly repressed; also recorded: inhibit the growth of said treated buds | not repressed in a significant manner | ≥ 10 nM
2 | O=C1OC2c3ccccc3CC2/C1=C\O (stereo not drawn) [ABC] |  |  |  |  |  |  | less efficient than GR24 and sorgolactone |  |  | 
3 | CC1=C[C@H](O/C=C2/C(=O)O[C@@H]3C4=C(CCC[C@@H]4C)C[C@H]23)OC1=O [sorgolactone, Sorgolactone] |  |  |  |  |  |  | comparable effects |  |  | 
